Entries after “also recorded” stand apart in the source; their conditions may differ. Where two headings read alike, the source gives them in different places.
Tests used:
[1] = tested on: human dermal fibroblasts; HDFs; assay: Bodipy staining in WA medium (BODIPY positive cells), Example 46; conditions: day 12, FIG. 50
[2] = tested on: human dermal fibroblasts; HDFs; conditions: 4 μM in calcification induction medium; day 18; FIG. 20
Description: The calcification induction medium is a 10% FBS DMEM added with 50 μg/ml ascorbic acid, 10 mM β-glycerophosphate and 100 nM Dexamethasone. The culture medium was exchanged with a fresh one every 3-4 days, and culturing was performed until day 18. On day 18, the culture medium was removed from each well by suction, washed with PBS(−), and fixed with 10% formalin. It was washed 3 times with sterile distilled water. The well after staining with Alizarin Red S was washed with sterile distilled water, and photographed with an inverted microscope at ×40 magnification.

[3] = tested on: Human normal skin-derived fibroblasts (HDFs); assay: Immunostaining of UCP1, four inhibitors, Example 40; format: cell-based; conditions: LY2157299 8 μM, SB431542 4 μM, D4476 4 μM, Day 1 to Day 8, day 14, FIG. 44
Description: Human normal skin-derived fibroblasts (HDFs) were suspended in a general medium (DMEM added with 10% FBS). […] The adipocyte induction medium is DMEM added with 1 nM T3, 1 μM Rosiglitazone, 0.5 mM 3-isobutyl-1-methylxanthine (IBMX), 0.5 μM dexamethasone, 1 μg/mL Insulin and 10% FBS. Once every 2 days, the culture medium was exchanged with a fresh one, and culturing was performed from Day 1 to Day 8. Thereafter, from Day 9 to Day 14, the cells were cultured in an adipocyte induction medium free of ALK5 inhibitor II, LY2157299, SB431542, D4476. On day 14, the culture medium was removed by suction from each well, and washed with PBS(−). After fixing with 4% para-formaldehyde, the well was washed with PBS (−), Permanent wave Buffer (0.2% Triton-X addition PBS) was added and the well was incubated for 15 min. After washing 3 times with PBS(−), Blocking One was added, and the mixture was incubated at room temperature for 60 min. Anti-UCP-1 antibody (RD MAB6158) was added and the mixture was reacted for 2 hrs at room temperature, and washed 3 times with Wash buffer. CF488-conjugated anti-mouse Ig antibody (Biotum 20014) was added and the mixture was reacted for 2 hrs at room temperature, and washed 3 times with PBS(−). After nuclear staining with SlowFade Gold antifade reagent with DAPI manufactured by Lifetechnology, the cells were photographed with a fluorescence microscope at ×100 magnification.

[4] = tested on: human dermal fibroblasts; HDFs; assay: Alizarin Red S staining (staining figure), fibroblast to osteoblast, Example 1; format: cell-based; conditions: each compound 2 μM in calcification induction medium; day 24; FIG. 1
Description: It was washed 3 times with sterile distilled water. […] The well after staining was washed with sterile distilled water and photographed.
The concentrations of the compounds are as follows: • D4476: 2 μM • ALK5 inhibitor II: 2 μM • SB431542: 2 μM.

[5] = tested on: human gingival fibroblasts; GFs; conditions: 4 μM in calcification induction medium; day 18; FIG. 27
Description: (§1) The calcification induction medium is a 10% FBS DMEM added with 50 μg/ml ascorbic acid, 10 mM β-glycerophosphate and 100 nM Dexamethasone. The culture medium was exchanged with a fresh one every 3-4 days, and culturing was performed until day 18.
On day 18, the culture medium was removed from each well by suction, washed with PBS(−), and fixed with 10% formalin. It was washed 3 times with sterile distilled water. The well after Alizarin Red S staining was washed with sterile distilled water, and photographed with an inverted microscope at ×40 magnification.

[6] = tested on: Human Epidermal Keratinocyte; NHEK (AD); assay: Real-time RT-PCR of UCP1 and CIDEA, keratinocyte to brown adipocyte, Example 43; format: cell-based; conditions: K-adipocyte induction medium; ALK5 inhibitor II 4 μM or LY2157299 8 μM, Day 1 to Day 8; day 14; FIG. 47
Description: Normal human epidermal keratinocyte (Human Epidermal Keratinocyte; NHEK (AD)) were suspended in a serum-free liquid medium for normal human epidermal keratinocyte proliferation (HuMedia-KG2; manufactured by Kurabo).
The K-adipocyte induction medium is HuMedia-KG2 added with 1 nM T3, 1 μM Rosiglitazone, 0.5 mM 3-isobutyl-1-methylxanthine (IBMX), 0.5 μM dexamethasone, and 1 μg/mL Insulin.
Once every 2 days, the culture medium was exchanged with a fresh one, and culturing was performed from Day 1 to Day 8. Thereafter, from Day 9 to Day 14, the cells were cultured in a medium free of ALK5 inhibitor II or LY2157299. On day 14, the culture medium was removed by suction from each well, washed with PBS(−) and total RNA was extracted from the cells by using RNA easy Mini Kit manufactured by Qiagen. cDNA was synthesized from the RNA by using Rever Tra Ace qPCR RT Master Mix. This cDNA was admixed with Real-time PCR Master Mix, primers specific to UCP-1 gene, CIDEA gene or β actin gene and Taqman probe. qRT-PCR was performed using AB7300 Real-time PCR system. The mRNA level of UCP1 gene and CIDEA gene was quantified as a ratio to β-actin gene mRNA level, and calculated with the value of fibroblast cultured in the general medium as 1.

[7] = tested on: human dermal fibroblasts; HDFs; conditions: cartilage induction medium added with 2 M ALK5 inhibitor II; day 18; FIG. 9
Description: Once every 2 days, the culture medium was exchanged with a fresh one, and culturing was performed until day 18. The cells were washed twice with PBS(−), once with 3% acetic acid solution, an alcian blue staining solution (PH2.5) (Nacalai Tesque) was added and the cells were stained for 1 hr at room temperature. The cells were washed 3 times with PBS(−) and observed under a microscope.

[8] = tested on: human dermal fibroblasts; HDFs; assay: Bodipy staining in WA medium, four inhibitors, Example 48; format: cell-based; conditions: day 12, FIG. 52
[9] = tested on: human peripheral blood mononuclear cells; PBMCs; conditions: P-adipocyte induction medium, 4 μM; day 14; FIG. 57
Description: Human normal peripheral blood mononuclear cells (human peripheral blood mononuclear cells; PBMCs) were suspended in Control medium (RPMI1640 medium added with 10% FBS). […] P-adipocyte induction medium (adipocyte induction medium for peripheral blood mononuclear cell) was added to group 2 at 1 mL/well. P-adipocyte induction medium added with ALK5 inhibitor II at a concentration of 4 μM was added to group 3 at 1 mL/well. The P-adipocyte induction medium is RPMI1640 medium added with 10% FBS, 30 U/ml recombinant hIL-2, 1 nM T3, 1 μM Rosiglitazone, 0.5 mM 3-isobutyl-1-methylxanthine (IBMX), 0.5 μM dexamethasone and 1 μg/mL Insulin. Once every 2 days, 50% of the culture medium was exchanged with a fresh one.
On day 14, the culture medium was removed by suction from each well, washed with PBS(−) and total RNA was extracted from the cells by using RNA easy Mini Kit manufactured by Qiagen. cDNA was synthesized from the RNA by using Rever Tra Ace qPCR RT Master Mix. This cDNA was admixed with Real-time PCR Master Mix, primers specific to FABP4 gene or β actin gene and Taqman probe. qRT-PCR was performed using AB7300 Real-time PCR system. The mRNA level of FABP4 gene was quantified as a ratio to 3-actin gene mRNA level, and calculated with the value of human normal peripheral blood mononuclear cell cultured in the general medium as 1.

[10] = tested on: human dermal fibroblasts; HDFs; assay: Oil Red O staining, fibroblast to brown adipocyte, Example 12; format: cell-based; conditions: compound 2 μM in addition to T3 1 nM and Rosiglitazone 1 μM, adipocyte induction medium; day 14; FIG. 12
Description: The concentrations of the additives are as follows: • T3: 1 nM • Rosiglitazone: 1 μM • D4476: 2 μM • Pifithrin alpha [p53 inhibitor]: 5 μM • SB431542: 2 μM • ALK5 Inhibitor II: 2 μM.
Then, the cells were washed with sterile distilled water and photographed with a phase contrast microscope at ×100 magnification.

[11] = tested on: human dermal fibroblasts; HDFs; assay: Real-time RT-PCR of Osteocalcin and Alkaline Phosphatase, Example 3; format: cell-based; conditions: each compound 2 μM in calcification induction medium; day 24; FIG. 3
Description: The concentrations of the compounds are as follows: • D4476: 2 μM • SB431542: 2 μM • ALK5 inhibitor II: 2 μM.

[12] = tested on: human gingival fibroblasts; GFs; conditions: 4 μM in calcification induction medium; day 18; FIG. 28
Description: as §1
On day 18, the culture medium was removed from each well by suction, washed with PBS(−), and fixed with a fixative. It was washed 3 times with sterile distilled water. The well after ALP staining was washed with sterile distilled water, and photographed with an inverted microscope at ×40 magnification.

[13] = tested on: Human normal skin-derived fibroblasts (HDFs); conditions: FIG. 42
Description: Human normal skin-derived fibroblasts (HDFs) were suspended in a general medium (DMEM added with 10% FBS). […] An adipocyte induction medium was added to group 2 at 1 mL/well. An adipocyte induction medium added with ALK5 inhibitor II at a concentration of 4 μM was added to groups 3-8 at 1 mL/well.
The adipocyte induction medium is DMEM added with 1 nM T3, 1 μM Rosiglitazone, 0.5 mM 3-isobutyl-1-methylxanthine (IBMX), 0.5 μM dexamethasone, 1 μg/mL Insulin and 10% FBS. Once every 2 days, the culture medium was exchanged with a fresh one. In groups 3-7, as described in the Figure, the cells were cultured in an adipocyte induction medium added with ALK5 inhibitor II only in the period of days 0-2, 0-4, 0-6, 0-8, 0-10, and thereafter cultured in an adipocyte induction medium free of ALK5 inhibitor II. On day 14, the culture medium was removed by suction from each well, and washed with PBS(−). After fixing with 4% para-formaldehyde, the well was washed with PBS (−), Permanent wave Buffer (0.2% Triton-X-added PBS) was added and the well was incubated for 15 min. After washing 3 times with PBS(−), Blocking One was added, and the mixture was incubated at room temperature for 60 min. Anti-UCP-1 antibody (RD MAB6158) was added and the mixture was reacted for 2 hrs at room temperature, and washed 3 times with Wash buffer. CF488-conjugated anti-mouse Ig antibody (Biotum 20014) was added and the mixture was reacted for 2 hrs at room temperature, and washed 3 times with PBS(−). After nuclear staining with SlowFade Gold antifade reagent with DAPI manufactured by Lifetechnology, the cells were photographed with a fluorescence microscope at ×100 magnification.

[14] = tested on: human dermal fibroblasts; HDFs; conditions: 4 μM in calcification induction medium; day 18; FIG. 22
Description: as §1
On day 18, the culture medium was removed from each well by suction, washed with PBS, and total RNA was extracted from the cell with ISOGEN II. cDNA was synthesized from the RNA by using Rever Tra Ace qPCR RT Master Mix. This cDNA was admixed with Real-time PCR Master Mix, and primers specific to Osteocalcin, Alkaline Phosphatase or β-actin gene, and Taqman probe. qRT-PCR was performed using AB7300 Real-time PCR system. The mRNA level of Osteocalcin (Oc) and Alkaline Phosphatase (ALP) gene was quantified as a ratio to β-actin gene mRNA, and calculated with the value of fibroblast cultured in a calcification induction medium as 1.

[15] = tested on: Human normal skin-derived fibroblasts (HDFs); assay: Real-time RT-PCR of ALP, Osteocalcin, Bonesialoprotein, Example 35; format: cell-based; conditions: calcification induction medium added with ALK5 i II 4 μM; day 18; FIG. 39
Description: The concentrations of the small molecule compound or cytokine added are as follows. • ALK5 i II: 4 μM • 1α,25-dihydroxy Vitamin D3 (VD3): 5 nM • Human insulin-like growth factor-1 (IGF-1): 100 ng/ml.

[16] = tested on: human dermal fibroblasts; HDFs; conditions: 4 μM in MDI medium; day 14; FIG. 24
Description: MDI medium (3-isobutyl-1-methylxanthine/dexamethasone/insulin-containing medium) is 10% FBS DMEM added with 0.5 mM 3-isobutyl-1-methylxanthine (IBMX), 0.5 μM dexamethasone, and 1 μg/mL Insulin. The culture medium was exchanged with a fresh one every 3-4 days, and culturing was performed until day 14.
On day 14, the culture medium was removed from each well by suction, washed with PBS, and total RNA was extracted from the cell with ISOGEN II. cDNA was synthesized from the RNA by using Rever Tra Ace qPCR RT Master Mix. This cDNA was admixed with Real-time PCR Master Mix, and primers specific to AdipoQ, FABP4 or β-actin gene, and Taqman probe. qRT-PCR was performed using AB7300 Real-time PCR system. The mRNA level of AdipoQ and FABP4 gene was quantified as a ratio to β-actin gene mRNA level, and calculated with the value of fibroblast cultured in MDI medium as 1.

Q: What does the source list for `Cc1cccc(-c2n[nH]cc2-c2ccc3ncccc3n2)n1` [ALK5 inhibitor II, 2-(3-(6-Methylpyridin-2-yl)-1H-pyrazol-4-yl)-1,5-naphthyridine]?
A: BODIPY positive cells / conversion to white adipocyte, co-addition with Rosiglitazone ([1]; WA medium co-added with 8 μM or 16 μM ALK5 inhibitor II and 1 μM Rosiglitazone): more cells were stained; also recorded: more strongly induced conversion of fibroblast to white adipocyte; BODIPY positive cells / conversion to white adipocyte, single addition ([1]; WA medium, 1 μM Rosiglitazone or 16 μM ALK5 inhibitor II): contained stained cells at low frequency; also recorded: converted human fibroblast to white adipocyte; conversion of fibroblast to osteoblast, Alizarin Red S staining [2]: converted human skin-derived fibroblast to osteoblast that produces a large amount of calcified bone matrix; conversion of fibroblast to brown adipocyte, UCP1 protein ([3]; ALK5 inhibitor II 4 μM): converted fibroblast to brown adipocyte expressing UCP1 protein; also recorded: most strongly induced; staining with anti-UCP1 antibody ([3]; groups 3-6: ALK5 inhibitor II 4 μM): many cells were stained with anti-UCP1 antibody; also recorded: the density of the cells stained with anti-UCP1 antibody was the highest; conversion of human fibroblast to osteoblast, Alizarin Red S staining (staining figure) [4]: converted to osteoblast having calcified is bone matrix production ability; also recorded: most efficiently converts fibroblast to osteoblast; conversion of gingival-derived fibroblast to osteoblast, Alizarin Red S staining [5]: converted human gingival-derived fibroblast to osteoblast that produces a large amount of calcified bone matrix; conversion of epidermal keratinocyte to brown adipocyte, UCP1 and CIDEA mRNA [6]: converted normal human epidermal keratinocyte to brown adipocyte expressing UCP1 gene and CIDEA gene; conversion of fibroblast to cartilage, alcian blue staining [7]: can convert human normal skin-derived fibroblast to cartilage that produces cartilage matrix stained blue; lipid droplets stained with Bodipy, inhibitor alone ([8]; WA medium added with 16 μM compound alone): only a few cells contained lipid droplets stained with Bodipy; lipid droplets stained with Bodipy / conversion to white adipocyte, inhibitor and Rosiglitazone ([8]; WA medium added with 16 μM compound and 1 μM Rosiglitazone): many cells were stained; also recorded: most strongly induced conversion of fibroblast to white adipocyte; conversion of peripheral blood mononuclear cell to white adipocyte, FABP4 mRNA [9]: converts human normal peripheral blood mononuclear cell to white adipocyte expressing FABP4 gene; conversion of fibroblast to brown adipocyte, Oil Red O staining [10]: converted fibroblast to brown adipocyte; conversion of human fibroblast to osteoblast, Osteocalcin and Alkaline Phosphatase mRNA [11]: converted to osteoblast expressing osteocalcin and alkaline phosphatase gene; also recorded: most efficiently converts fibroblast to osteoblast; conversion of gingival-derived fibroblast to osteoblast, ALP staining [12]: converted human gingival-derived fibroblast to osteoblast having high ALP activity; conversion of fibroblast to brown adipocyte, UCP1 protein, exposure 0-8 days ([13]; 4 μM for 0-8 days, thereafter medium free of ALK5 inhibitor II): can be more strongly induced; staining with anti-UCP1 antibody, groups 3-8 ([13]; 4 μM in adipocyte induction medium, days 0-2 to 0-10 or throughout, day 14): many cells were stained with anti-UCP1 antibody; conversion of fibroblast to brown adipocyte, UCP1 protein ([13]; 4 μM in adipocyte induction medium, day 14): converted fibroblast to brown adipocyte is highly expressing UCP1 protein; staining with anti-UCP1 antibody, group 6 ([13]; 4 μM only in days 0-8, day 14): the density of the cells stained with anti-UCP1 antibody was the highest; conversion of fibroblast to osteoblast, Osteocalcin and ALP mRNA [14]: converted human skin-derived fibroblast to osteoblast expressing osteocalcin gene and ALP gene; mRNA expression of ALP [15]: significantly increased; mRNA expression of BSP, compared to calcification induction medium [15]: increased; mRNA expression of OC, compared to calcification induction medium [15]: increased; conversion of fibroblast to white adipocyte, AdipoQ and FABP4 mRNA [16]: converted human skin-derived fibroblast to white adipocyte expressing AdipoQ gene and FABP4 gene

— patent publication US11851681B2, “Cell preparation method” (KYOTO PREFECTURAL PUBLIC UNIVERSITY CORPORATION, priority 2015, dated 2023)
